The record followed here is US11248022B2, “Glypican-3 peptide reagents and methods” (THE REGENTS OF THE UNIVERSITY OF MICHIGAN, priority 2017, dated 2022).

“And” between values parts separate entries of the source, which are not always exact repeats. Equal values may be shown once. Read-outs that look alike come from different tables or passages of the source. Ends that are not written are not given here.

Assay [1] has as its system Hep3B cells. In words: Apparent association time constant on Hep3B cells by flow cytometry. It counts as binding, human. As for the experimental part: The apparent association time constant (k) was also measured for the optimized GPC3 peptide to provide an assessment of how rapidly the peptide binds. The ALL*-Cy5.5 peptide reagent was incubated with Hep3B cells over time intervals ranging from 0 to 40 min. Fluorescence intensities were measured on flow cytometry. The median fluorescence intensity (y) was ratioed with that of Hep3B cells without addition of peptide reagent at different time points (t).
(In general: In flow cytometry, cells or beads pass a laser one at a time.)

Assay [2] has as its system Hep3B cells. As to the kind of experiment: Apparent dissociation constant on Hep3B cells by flow cytometry. The assay is classed as binding, human. As for the experimental part:
The apparent dissociation constant (kd) was measured for the optimized GPC3 peptide to Hep3B cells to provide an assessment of peptide binding affinity. The ALL*-Cy5.5 peptide reagent was serially diluted in PBS at concentrations ranging from 0 to 200 nM in 25 nM increments and incubated with Hep3B cells. The mean fluorescence intensities was measured on flow cytometry. The equilibrium dissociation constant kd=1/ka was calculated by performing a least squares fit of the data to the non-linear equation I=(I0+Imaxka[X])/([…]). I0and Imax are the initial and maximum fluorescence intensities, corresponding to no peptide and at saturation, respectively, and [X] represents the concentration of the bound peptide.

Another assay deals with HepG2 human HCC cells. In words: Confocal microscopy of peptide binding to HepG2 cells. The assay is classed as cell-based. As to the method:
(§1) FIGS. 6-2A-Q show validation of specific peptide binding to cells in vitro. […] The Hep3B versus SK-Hep1 difference was also larger for antibody than QLE (P=2.3×10^−8, 6.0-fold larger). Intensity was measured with 6 replicates per condition and fitted to an ANOVA model with terms for 9 means to log-transformed data. […] We further validated specific peptide binding to GPC3 using siRNA knockdown. […] Q) Quantified fluorescence intensities. The siCL vs siGPC3 difference was 7.4 times bigger for ALL than the same difference for QLE (P=7.8×10^−5), and the difference for antibody was 8.9 times bigger than for QLE (P=2.5×10^−5), by ANOVA on log-transformed data. Results are an average of 6 images collected independently.
On confocal microscopy, it was shown that ALL*-Cy5.5 binds to the surface (arrows) of cells with different levels of GPC3 expression. […] GPC3 is highly overexpressed in Hep3B cell cytosol and membrane while moderately expressed in HepG2 cells. No GPC3 expression is observed in SK-Hep1 cells. Tubulin serves as loading control for either cytosol or membrane fractions loaded.

Assay [3] deals with HCC xenograft tumor overexpressing GPC3. In words: In vivo handheld dual axes confocal endomicroscope imaging. Further details: species or system mice. As for the experimental part: GPC3 expression from human HCC xenograft tumors was evaluated in real time by collecting optical sections in vivo using a handheld 5.5 mm diameter dual axes confocal endomicroscope. A solid-state diode laser (300 mW, CNI Laser Inc.) provided illumination at λex=671 nm. A parabolic mirror focused the illumination and collection beams to overlap below the tissue surface with lateral and axial resolution of 2 and 5 μm, respectively. A compact, 3D monolithic scanner located in the distal tip provided large vertical displacements and wide angular deflections to produce images in the vertical (XZ) and horizontal (XY) planes with a FOV of 1000×430 and 1000×1000 μm^2, respectively. NIR fluorescence is collected and passes through a band pass filter (FF01-716/40-25, Semrock) that transmits from 696-736 nm with >93% efficiency for detection with a photomultiplier tube (PMT, H7422PA-40, Hamamatsu) detector. The peptides were injected via the tail vain, and dissected away the skin overlying the tumor to gain access. The distal tip of the endomicroscope was placed in contact with the tumor using a drop of saline to couple the light. Laser power <2 mW on the tissue was used to avoid photobleaching. NIR fluorescence images were collected at 5 frames per sec. 3D volumetric images were reconstructed from a series of images collected in the vertical plane using Amira software (ver 5.4.3, FEI Corporation).
The probe was small enough to be comfortably held in the surgeon's hand during surgery, FIG. 12A, for in vivo imaging of biomarker expression. Its diameter was 5.5 mm and delivered 671 nm near-infrared laser at 2 mW. Mouse carrying HCC xenograft tumor overexpressing GPC3 was first injected with 250 μL 300 μM ALL*-Cy5.5 peptide intravenously and after 2 hours the probe was held in contact with exposed subcutaneous tumor to acquire in vivo peptide binding images, FIG. 12B. Images were collected in either the vertical or horizontal plane with 430 μm depth or 1000×1000 μm^2 area, respectively, at 5 frames per second. With measured lateral resolution of 2.49 μm and axial resolution of 4.98 μm, each peptide stained cell can be clearly seen (arrows). […] Strong uptake (arrows) of ALL*-Cy5.5 in tumor was captured on optical sections collected in the horizontal (1000×1000 μm^2, Video 1) FIG. 12C and vertical (1000×430 μm^2, Video 2) FIG. 12D planes, respectively. A series of vertical cross-section images were reconstructed into 3D MIP volume (Video 3), FIG. 12E.

In the next assay the target is T1, GPC3 (Homo sapiens, UniProt P51654).
T1 construct: endogenous in cells; host or cells: Hep3B human HCC cells (siCL control vs siGPC3 knockdown); also HepG2; SK-Hep1 as GPC3-negative control
T1 sequence (P51654 25-554): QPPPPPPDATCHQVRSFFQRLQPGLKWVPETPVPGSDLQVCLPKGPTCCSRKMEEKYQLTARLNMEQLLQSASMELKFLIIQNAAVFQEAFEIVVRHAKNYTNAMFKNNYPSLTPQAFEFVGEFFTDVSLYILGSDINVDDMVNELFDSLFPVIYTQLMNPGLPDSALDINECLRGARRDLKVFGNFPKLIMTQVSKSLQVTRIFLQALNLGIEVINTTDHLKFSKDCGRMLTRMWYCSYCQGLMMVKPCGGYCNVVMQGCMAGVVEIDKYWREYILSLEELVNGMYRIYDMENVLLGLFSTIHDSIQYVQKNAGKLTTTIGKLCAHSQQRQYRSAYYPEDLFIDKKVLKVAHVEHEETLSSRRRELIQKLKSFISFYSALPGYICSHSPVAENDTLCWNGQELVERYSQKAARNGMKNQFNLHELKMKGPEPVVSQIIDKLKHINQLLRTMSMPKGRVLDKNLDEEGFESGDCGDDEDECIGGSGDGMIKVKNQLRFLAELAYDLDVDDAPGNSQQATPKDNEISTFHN
As to the kind of experiment: siRNA knockdown of GPC3 in Hep3B cells, confocal fluorescence. It counts as cell-based. As to the method:
as §1
The specificity of lead candidate peptide reagent binding was validated by siRNA knockdown of GPC3 in human HCC cells. The cells were transfected with siRNA to knockdown cell surface expression of GPC3. […] These cells were transfected with non-targeting siRNA (siCL) for use as control. […] FIG. 6-1D,E show ˜4-fold reduction in fluorescence intensity with both the peptide reagent and anti-GPC3 antibody, respectively, for Hep3B cells transfected with siRNA (siGPC3) to knock down GPC3 expression. […] FIG. 6-2M, N, O and P show the same result as original FIG. 6-1A, B, D and E.

As for “ALLANHEELFQT (SEQ ID NO: 1) peptide labeled with Cy5.5 via a GGGSK linker on the C-terminus (ALLANHEELFQTGGGSK-{Cy5.5}) [ALL*-Cy5.5]”, the “apparent association time constant k” value in the assay on Hep3B cells [1] and in the assay with Hep3B cells [1] (FIG. 8B legend) was 0.11 min⁻¹ each time. Also, in the assay on Hep3B cells [1], the onset of binding is reported as 9.1 min. Moreover, the Kd with Hep3B cells [2] is 0.071 µM and 0.0713 µM. The “intensity difference HepG2 versus SK-Hep1 relative to the same difference for QLE*” value with HepG2 human HCC cells (6 replicates, log-transformed data) turned out to be 3.3 fold. The “fluorescence intensity from binding to cell surface” value with HepG2 human HCC cells (HepG2 cells, confocal microscopy) was “strong fluorescence intensity”. The “fluorescent signal relative to QLE*-Cy5.5” value in assay [3] (2 hours after i.v. injection) was 2.9 fold. The “fluorescent intensity at tumor” value in assay [3] (2 hours after i.v. injection, n=8) is 47±13. The “uptake/staining in tumor on optical sections” value in assay [3] (horizontal and vertical planes) is “Strong uptake”. In addition, the “siCL vs siGPC3 difference relative to the same difference for QLE” value with GPC3 (ANOVA on log-transformed data) is given as 7.4 times. Besides, the “fluorescence intensity remaining (% of siCL control)” value with GPC3 (GPC3 knockdown cells) was 27%. Moreover, the “binding to cell surface” value in the assay with GPC3 (Hep3B cells transfected with non-targeting siRNA (siCL)) is recorded as “strong binding”. In addition, the “reduction in fluorescence intensity” value in the assay with GPC3 (Hep3B cells transfected with siGPC3 vs siCL) was roughly 4 fold. The fluorescence intensity in the assay with GPC3 (siCL treated Hep3B control cells) is 54.3±6.0; with GPC3 (siGPC3 knockdown Hep3B cells), 14.7±1.5.
